Results published in patent publication US12110293B2, “Substituted triazolo quinoxaline derivatives” (GRÜNENTHAL GMBH, priority 2018, dated 2024).

molecular target: T1, glucocorticoid receptor (Homo sapiens, UniProt P04150); experiment: Agonistic mode of action on the glucocorticoid receptor (CHO-Gal4/GR luciferase reporter cell line); type: cell-based; conditions: range class observed in the agonistic assay or the antagonistic assay (CHO-Gal4/GR reporter cells); table does not say which mode applies per example
T1 construct: expressed in transfected cells
T1 sequence (P04150 524-758 limits assumed): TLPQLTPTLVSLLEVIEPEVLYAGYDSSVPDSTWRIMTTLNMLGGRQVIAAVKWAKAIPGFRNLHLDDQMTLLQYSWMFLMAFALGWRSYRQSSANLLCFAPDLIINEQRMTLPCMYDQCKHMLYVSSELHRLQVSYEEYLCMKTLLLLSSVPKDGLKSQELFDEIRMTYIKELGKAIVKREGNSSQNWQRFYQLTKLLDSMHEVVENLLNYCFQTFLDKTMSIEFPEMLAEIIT
How it was run: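 CHO cells stably carrying GAL4 DBD–GR ligand-binding-domain fusion and GAL4-UAS firefly luciferase reporter, 5000 cells/well grown 24 h, then compounds added in Opti-MEM at 8 half-log concentrations from 10 μM to 0.003 μM (0.5% DMSO), quadruplicates. Agonist-induced luminescence read on FLIPR Tetra; EC50 calculated.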

| Compound | IC50 or EC50 (agonist or antagonist mode not specified) |
| --- | --- |
| COCCn1ccc2c(-c3c(C)cc4c(c3C)-n3c(C)nnc3C(C)(C)N4)cccc21 [Example 331, 8-[1-(2-Methoxy-ethyl)-1H-indol-4-yl]-1,4,4,7,9-pentamethyl-5H-[1,2,4]triazolo[4,3-a]quinoxaline] | 1000 to 15000 nM |
| COCCn1c(C(F)(F)F)cc2c(-c3c(OC(F)F)cc4c(c3F)-n3c(C)nnc3C(C)(C)N4)cccc21 [Example 259, 7-(Difluoro-methoxy)-9-fluoro-8-[1-(2-methoxy-ethyl)-2-(trifluoromethyl)-1H-indol-4-yl]-1,4,4-trimethyl-5H-[1,2,4]triazolo[4,3-a]quinoxaline] | 1000 to 15000 nM |
| Cc1nnc2n1-c1c(cc(F)c(-c3c(F)ccc4c3ccn4S(C)(=O)=O)c1F)NC2(C)C [Example 224, 7,9-Difluoro-8-(5-fluoro-1-methylsulfonyl-1H-indol-4-yl)-1,4,4-trimethyl-5H-[1,2,4]triazolo[4,3-a]quinoxaline] | 100 to 1000 nM |
| Cc1nnc2n1-c1c(cc(F)c(-c3cccc4c3ccn4S(C)(=O)=O)c1C1CC1)NC2(C)C [Example 462, 9-Cyclopropyl-7-fluoro-1,4,4-trimethyl-8-(1-methylsulfonyl-1H-indol-4-yl)-5H-[1,2,4]triazolo [4,3-a]quinoxaline] | < 100 nM |
| Cc1c(-c2cc(F)cc3c(C4CC4)c[nH]c23)c(Cl)cc2c1-n1c(C)nnc1C(C)(C)N2 [Example 485, 7-Chloro-8-(3-cyclopropyl-5-fluoro-1H-indol-7-yl)-1,4,4,9-tetramethyl-5H-[1,2,4]triazolo [4,3-a]quinoxaline] | < 100 nM |
| CC(=O)n1ccc2c(-c3c(F)cc4c(c3F)-n3c(C)nnc3C(C)(C)N4)cc(F)cc21 [Example 4, 1-(4-(7,9-difluoro-1,4,4-trimethyl-4,5-dihydro-[1,2,4]triazolo[4,3-a]quinoxalin-8-yl)-6-fluoro-1H-indol-1-yl)ethanone] | < 100 nM |
| CCc1nnc2n1-c1c(cc(F)c(-c3cccc4c3ccn4CCOC)c1C)NC2(C)C [Example 299, 1-Ethyl-7-fluoro-8-[1-(2-methoxy-ethyl)-1H-indol-4-yl]-4,4,9-trimethyl-5H-[1,2,4]triazolo[4,3-a]quinoxaline] | 1000 to 15000 nM |
| Cc1nnc2n1-c1c(cc(F)c(-c3cc(C#N)cc4[nH]ccc34)c1C(F)(F)F)NC2(C)C [Example 479, 4-[7-Fluoro-1,4,4-trimethyl-9-(trifluoromethyl)-5H-[1,2,4]triazolo[4,3-a]quinoxalin-8-yl]-1H-indole-6-carbonitrile] | 100 to 1000 nM |
| Cc1c[nH]c2c(-c3c(F)cc4c(c3F)-n3c(Cc5ccccn5)nnc3C(C)(C)N4)cccc12 [Example 75, 7,9-Difluoro-4,4-dimethyl-8-(3-methyl-1H-indol-7-yl)-1-(pyridin-2-yl-methyl)-5H-[1,2,4]triazolo[4,3-a]quinoxaline] | < 100 nM |
| Cc1nnc2n1-c1c(cc(F)c(-c3cccc4c3ccn4S(=O)(=O)C(C)C)c1C(F)F)NC2(C)C [Example 400, 9-(Difluoro-methyl)-7-fluoro-8-[1-(isopropylsulfonyl)-1H-indol-4-yl]-1,4,4-trimethyl-5H-[1,2,4]triazolo [4,3-a]quinoxaline] | 1000 to 15000 nM |
| Cc1c(-c2cc(F)cc3c(C)c[nH]c23)c(OC(F)F)cc2c1-n1c(C)nnc1C(C)(C)N2 [Example 365, 7-(Difluoro-methoxy)-8-(5-fluoro-3-methyl-1H-indol-7-yl)-1,4,4,9-tetramethyl-5H-[1,2,4]triazolo[4,3-a]quinoxaline] | 1000 to 15000 nM |
| CC#Cc1c[nH]c2c(-c3c(F)cc4c(c3C)-n3c(COC)nnc3C(C)(C)N4)cc(F)cc12 [Example 76, 7-fluoro-8-(5-fluoro-3-(prop-1-yn-1-yl)-1H-indol-7-yl)-1-(methoxymethyl)-4,4,9-trimethyl-4,5-dihydro-[1,2,4]triazolo[4,3-a]quinoxaline] | < 100 nM |

Next, values leading:

| IC50 or EC50 (agonist or antagonist mode not specified) | Compound |
| --- | --- |
| 100 to 1000 nM | Cc1cc2c(c(F)c1-c1cc(F)cc3c1ccn3C)-n1c(C)nnc1C(C)(C)N2 [Example 520, 9-Fluoro-8-(6-fluoro-1-methyl-1H-indol-4-yl)-1,4,4,7-tetramethyl-5H-[1,2,4]triazolo[4,3-a]quinoxaline] |
| < 100 nM | COc1c(-c2cc(F)cc3c(C)c[nH]c23)c(F)cc2c1-n1c(C)nnc1C(C)(C)N2 [Example 249, 7-Fluoro-8-(5-fluoro-3-methyl-1H-indol-7-yl)-9-methoxy-1,4,4-trimethyl-5H-[1,2,4]triazolo[4,3-a]quinoxaline] |
| 100 to 1000 nM | Cc1nnc2n1-c1c(cc(F)c(-c3cccc4c(C#N)c[nH]c34)c1C(F)(F)F)NC2(C)C [Example 89, 7-(7-fluoro-1,4,4-trimethyl-9-(trifluoromethyl)-4,5-dihydro-[1,2,4]triazolo[4,3-a]quinoxalin-8-yl)-1H-indole-3-carbonitrile] |
| 100 to 1000 nM | COCCn1ccc2c(-c3c(F)cc4c(c3OC)-n3c(C)nnc3C(C)(C)N4)cccc21 [Example 281, 7-Fluoro-9-methoxy-8-[1-(2-methoxy-ethyl)-1H-indol-4-yl]-1,4,4-trimethyl-5H-[1,2,4]triazolo[4,3-a]quinoxaline] |
| < 100 nM | Cc1nnc2n1-c1c(cc(F)c(-c3cccc4c3cnn4CC3CC3)c1F)NC2(C)C [Example 235, 8-[1-(Cyclopropyl-methyl)-1H-indazol-4-yl]-7,9-difluoro-1,4,4-trimethyl-5H-[1,2,4]triazolo[4,3-a]quinoxaline] |
| 100 to 1000 nM | Cc1c(-c2cc(C(F)(F)F)cc3[nH]ccc23)c(F)cc2c1-n1c(C)nnc1C(C)(C)N2 [Example 470, 7-Fluoro-1,4,4,9-tetramethyl-8-[6-(trifluoromethyl)-1H-indol-4-yl]-5H-[1,2,4]triazolo[4,3-a]quinoxaline] |
| < 100 nM | Cc1nnc2n1-c1c(cc(F)c(-c3cccc4[nH]ccc34)c1C(F)(F)F)NC2(C)C [Example 467, 7-Fluoro-8-(1H-indol-4-yl)-1,4,4-trimethyl-9-(trifluoromethyl)-5H-[1,2,4]triazolo[4,3-a]quinoxaline] |
| < 100 nM | Cc1c(-c2cccc3c2ccn3C2CC2)c(F)cc2c1-n1c(C)nnc1C(C)(C)N2 [Example 27, 8-(1-cyclopropyl-1H-indol-4-yl)-7-fluoro-1,4,4,9-tetramethyl-4,5-dihydro-[1,2,4]triazolo[4,3-a]quinoxaline] |
| 1000 to 15000 nM | CCc1nnc2n1-c1c(cc(F)c(-c3cccc4c(C#N)c[nH]c34)c1F)NC2(C)C [Example 12, 7-(T-ethyl-7,9-difluoro-4,4-dimethyl-4,5-dihydro-[1,2,4]triazolo[4,3-a]quinoxalin-8-yl)-1H-indole-3-carbonitrile] |
| < 100 nM | COCCn1ccc2c(-c3c(F)cc4c(c3OC)-n3c(C)nnc3C(C)(C)N4)cc(F)cc21 [Example 351, 7-Fluoro-8-[6-fluoro-1-(2-methoxy-ethyl)-1H-indol-4-yl]-9-methoxy-1,4,4-trimethyl-5H-[1,2,4]triazolo [4,3-a]quinoxaline] |
| 1000 to 15000 nM | COc1c(-c2cccc3c(C)n[nH]c23)c(F)cc2c1-n1c(C)nnc1C(C)(C)N2 [Example 381, 7-Fluoro-9-methoxy-1,4,4-trimethyl-8-(3-methyl-1H-indazol-7-yl)-5H-[1,2,4]triazolo[4,3-a]quinoxaline] |
| < 100 nM | Cc1nnc2n1-c1c(cc(F)c(-c3cccc4c(C5CCC5)c[nH]c34)c1Cl)NC2(C)C [Example 41, 9-chloro-8-(3-cyclobutyl-1H-indol-7-yl)-7-fluoro-1,4,4-trimethyl-4,5-dihydro-[1,2,4]triazolo[4,3-a]quinoxaline] |
| 100 to 1000 nM | Cc1n[nH]c2c(-c3c(F)cc4c(c3C(F)F)-n3c(C)nnc3C(C)(C)N4)cccc12 [Example 367, 9-(Difluoro-methyl)-7-fluoro-1,4,4-trimethyl-8-(3-methyl-1H-indazol-7-yl)-5H-[1,2,4]triazolo[4,3-a]quinoxaline] |
| 100 to 1000 nM | Cc1nnc2n1-c1c(cc(F)c(-c3ccc(Cl)c4[nH]ccc34)c1C(F)(F)F)NC2(C)C [Example 530, 8-(7-Chloro-1H-indol-4-yl)-7-fluoro-1,4,4-trimethyl-9-(trifluoromethyl)-5H-[1,2,4] triazolo[4,3-a]quinoxaline] |
| 100 to 1000 nM | COc1c(-c2cccc3c2ccn3C)c(F)cc2c1-n1c(C)nnc1C(C)(C)N2 [Example 487, 7-Fluoro-9-methoxy-1,4,4-trimethyl-8-(1-methyl-1H-indol-4-yl)-5H-[1,2,4]triazolo[4,3-a] quinoxaline] |
| < 100 nM | Cc1c(-c2cccc3c(C#CC(C)(C)N)c[nH]c23)c(F)cc2c1-n1c(C)nnc1C(C)(C)N2 [Example 40] |
| 100 to 1000 nM | Cc1nnc2n1-c1c(cc(F)c(-c3cccc4c3ccn4C)c1C(F)F)NC2(C)C [Example 481, 9-(Difluoro-methyl)-7-fluoro-1,4,4-trimethyl-8-(1-methyl-1H-indol-4-yl)-5H-[1,2,4]triazolo[4,3-a] quinoxaline] |
| 100 to 1000 nM | CCn1ncc2c(-c3c(F)cc4c(c3F)-n3c(C)nnc3C(C)(C)N4)cccc21 [Example 236, 8-(1-Ethyl-1H-indazol-4-yl)-7,9-difluoro-1,4,4-trimethyl-5H-[1,2,4]triazolo[4,3-a]quinoxaline] |
